Assay results as given in patent US9096544B2, “Therapeutic compounds” (Wayne State University, priority 2009, dated 2015).

Experiments:
[1] = Test G: effect on body weight of repeated escalating dosing (toxicity, MTD); assay type: in vivo; details: IV once a day for 7 days, 20 mg/kg increased by 25% each dose; two female mice per group
Experimental: Mice were treated with escalating doses of either compound 16 or 3-Cl-AHPC to establish the difference in toxicity (MTD) between these compounds as measured by decreased body weight (FIG. 8). Two groups of mice, each consisting of two female ICR-SCIDS mice, were injected IV with either compound 16 or 3-Cl-AHPC once a day for 7 days. The initial IV injection of 20 mg/kg for each compound was increased by 25% for each ensuing dose. Body weights were measured on each of the seven days with the final body weights determined 48 hours post final dose. […] The final weight for this mouse was recorded 2 hours after death.

TF(v-SRC) cells = assay: Test E: inhibition of TF(v-SRC) cell growth in SCID mice (systemic model); assay type: in vivo; details: 20 mg/kg intravenously every other day, 15 doses
Experimental: (§1) FIG. 7 illustrates compound 16 inhibited TF(v-SRC) proliferation and growth in SCID mice. NOD SCID mice were randomized into two groups of eight. Each mouse was injected with 1×10^7TF(v-SRC) cells and 24 h later mice were either treated intravenously with compound 16 (20 mg/kg) or vehicle on a Monday, Wednesday and Friday schedule for five weeks. Mice were monitored for toxicity and survival. A) Survival of TF(vSRC) inoculated mice treated with compound 16, and B) absence of weight loss in compound 16 treated SCID mice. C) compound 16 inhibited palpable TF(v-SRC) growth in SCID mice. TF(v-SRC) cells were grown subcutaneously in a maintenance SCID mouse. The tumor was harvested and approximately 20 mg of tumor was subcutaneously injected utilizing a trochar into each flank of a SCID mouse. The tumors were then allowed to reach a size of 100 mg. The mice were randomized into three groups of 8 mice. Groups were treated either intravenously or subcutaneously at a distant site from the tumor with 20 mg/kg of compound 16 on a Monday, Wednesday and Friday schedule for 12 injections (4 weeks). Control mice were treated intravenously with vehicle.
Non-obese diabetic-severe combined immunodeficiency (NOD-SCID) and ICR-SCID mice were obtained from Jackson Laboratories (Bar Harbor, Me.) and Taconic Farms (Germantown, N.Y.), respectively. A) FFMA-AML and TF(v-SRC) systemic models: NOD-SCID and ICR-SCID mice (4 to 5 weeks old) were injected with either FFMA-AML or TF(v-SRC) cells intravenously. Treatment with either vehicle, 3-Cl-AHPC or compound 16 (the compound of Example 1) was instituted the following day. Once symptoms such as diarrhea, dehydration, weight loss, ascites, paralysis or general weakness became evident, mice were euthanized. B) TF(v-SRC) subcutaneous mouse model. ICR-SCID mice were trocared subcutaneously bilaterally with TF(v-SRC) tumor fragments. Animals with equal tumor weights determined as described previously (Zhang Y. et al., Blood. 2002; 100:2917-2925) were assigned to three experimental arms: 1) control (vehicle treated), 2) subcutaneously treated with compound 16, and 3) intravenously treated with compound 16. The percent increase in the host life-span (% ILS) of the FFMA-AML and TF(v-SRC) bearing mice was calculated by subtracting the […] divided by the median day of death of the AML-bearing vehicle treated mice. In order to determine the efficacy of the 3-Cl-AHPC and compound 16, survival distribution of the 3-Cl-AHPC or compound 16-treated (T) or vehicle (C) groups were compared using the log-rank test. Survival was characterized as the duration of the animal's life span 24 h after the initiation of the xenograft until an observed event (euthanasia or death). A p-value of less than 5% (p<0.05) was considered statistically significant.
The ability of compound 16 to inhibit the growth of TF(v-SRC) cells in SCID mice was determined. SCID mice were injected with 10 million TF(v-SRC) cells. The mice were treated intravenously with compound 16 (20 mg/kg) or vehicle every other day for a total of 15 doses. […] TF(v-SRC) growth in the SCID mice was documented by flow cytometry.

TF(v-SRC) tumors = assay: Test F: inhibition of growth of palpable TF(v-SRC) tumors; assay type: in vivo, SCID mice; details: palpable tumors of 100 mg
Experimental: as §1, with “Groups were treated either intravenously or subcutaneously at a distant site from the tumor with 20 mg/kg of compound 16 on a Monday, Wednesday and Friday schedule for 12 injections (4 weeks). Control mice were treated intravenously with vehicle.” left out
Non-obese diabetic-severe combined immunodeficiency (NOD-SCID) and ICR-SCID mice were obtained from Jackson Laboratories (Bar Harbor, Me.) and Taconic Farms (Germantown, N.Y.), respectively. […] Animals with equal tumor weights determined as described previously (Zhang Y. et al., Blood. 2002; 100:2917-2925) were assigned to three experimental arms: 1) control (vehicle treated), 2) subcutaneously treated with compound 16, and 3) intravenously treated with compound 16. […]

Row | SMILES | mortality [1] | clinical signs of toxicity (TF(v-SRC) cells) | length of survival (TF(v-SRC) cells) | malignant cells by flow cytometry (lymph node/tumor specimens) (TF(v-SRC) cells) | treated mice with no evidence of leukemia (TF(v-SRC) cells) | weight loss compared to vehicle-treated mice (TF(v-SRC) cells) | reduction in TF(v-SRC) growth (TF(v-SRC) tumors; 20 mg/kg intravenously every other day) | reduction in TF(v-SRC) growth (TF(v-SRC) tumors; 20 mg/kg subcutaneously at a remote site every other day)
1 | O=C(O)C=Cc1ccc(-c2ccc(O)c(C34CC5CC(CC(C5)C3)C4)c2)c(Cl)c1 [Compound 3-Cl-AHPC, 4-[3-(1-adamantyl)-4-hydroxyphenyl]-3-chlorocinnamic acid, reference compound] | One of the mice in the group treated with 3-Cl-AHPC died 48 hours after the final injection | – | – | – | – | – | – | –
2 | O=C(O)/C=C/c1cnc(-c2ccc(O)c(C34CC5CC(CC(C5)C3)C4)c2)nc1 [Compound 16, (E)-3-[2-(3-(1-Adamantyl)-4-hydroxyphenyl)-5-pyrimidinyl]-2-propenoic acid] | – | did not display any evidence of diarrhea, dehydration, scruffy coat, or decreased physical activity | marked increase in the length of survival | No malignant cells were identified | 87% | did not display any evidence of weight loss | 55% | 55%
